Results taken from ChEMBL document CHEMBL4834472 (J Med Chem, 2021).
The source made the active and inactive calls. The calls are words filed in the database; no cut-off is given here.

Legend:
[1] = system: Receptor-type tyrosine-protein kinase FLT3 (Homo sapiens), P36888 [D835Y]; experiment: Inhibition of FLT3 D835Y (unknown origin) assessed as residual activity at 500 nM
[2] = molecular target: Dual specificity tyrosine-phosphorylation-regulated kinase 1B (Homo sapiens) (UniProt Q9Y463); experiment: Inhibition of DYRK1B (unknown origin) assessed as residual activity at 500 nM
MV4-11 [3] = experiment: cells; settings: Homo sapiens, MV4-11, 72 h
Description: Antiproliferative activity against human MV4-11 cells assessed as cell death measured after 72 hrs by resazurin dye based assay

[4] = molecular target: Cyclin-dependent kinase 4/cyclin D1 (Homo sapiens, UniProt P11802); experiment: Inhibition of CDK4/cyclin D1 (unknown origin) in presence of [32P]gammaATP by image analyser; type: protein-complex assay
[5] = molecular target: Receptor-type tyrosine-protein kinase FLT3 (Homo sapiens, UniProt P36888, F691L); experiment: Binding affinity to human partial length FLT3 ITD F691L mutant expressed in mammalian expression system by KdELECT Discover assay
MOLM-14 [6] = experiment: Antiproliferative activity against human MOLM-14 cells harboring F691L mutant assessed as cell death measured after 72 hrs by resazurin dye based assay; type: functional; settings: MOLM-14, 72 h
MOLM-14 [7] = experiment: Antiproliferative activity against human MOLM-14 cells harboring D835Y mutant assessed as cell death measured after 72 hrs by resazurin dye based assay; type: functional; settings: MOLM-14, 72 h
MV4-11 [8] = experiment: Induction of apoptosis in human MV4-11 cells assessed as decrease in MCL1 level at 100 nM incubated for 24 hrs by Western blot analysis; type: functional, cell-based
[9] = molecular target: Receptor-type tyrosine-protein kinase FLT3 (Homo sapiens) (UniProt P36888); experiment: Inhibition of FLT3 in human MV4-11 cells assessed as STAT5 phosphorylation at Y694 at 20 to 100 nM incubated for 1 hrs by Western blot analysis; type: cell-based; settings: dose 20-100 nM
[10] = molecular target: Leucine-rich repeat serine/threonine-protein kinase 2 (Homo sapiens) (UniProt Q5S007); experiment: Inhibition of LRRK2 (unknown origin) assessed as residual activity at 500 nM
CCRF-CEM = experiment: Antiproliferative activity against human CCRF-CEM cells assessed as cell death measured after 72 hrs by resazurin dye based assay; type: functional
BaF3 [11] = experiment: Antiproliferative activity against mouse BaF3 cells harboring FLt3 ITD mutant assessed as cell death measured after 72 hrs by resazurin dye based assay; type: functional; settings: BaF3, 72 h
THP-1 = experiment: Antiproliferative activity against human THP-1 cells assessed as cell death measured after 72 hrs by resazurin dye based assay; type: functional; settings: THP-1, 72 h
[12] = molecular target: NT-3 growth factor receptor (Homo sapiens) (UniProt Q16288); experiment: Inhibition of TRKC (unknown origin) assessed as residual activity at 500 nM
[13] = system: Receptor-type tyrosine-protein kinase FLT3 (Homo sapiens), P36888 [UNDEFINED MUTATION]; experiment: Inhibition of FLT3 ITD (unknown origin) assessed as residual activity at 500 nM
MOLM-14 [14] = experiment: Antiproliferative activity against human MOLM-14 cells assessed as cell death measured after 72 hrs by resazurin dye based assay; type: functional; settings: MOLM-14, 72 h
MV4-11 [15] = experiment: Induction of apoptosis in human MV4-11 cells assessed as caspase 3 activation using fluorescent substrate Ac-DEVD-AMC at 100 nM incubated for 24 hrs by Western blot analysis; type: functional, cell-based
CDK2/Cyclin A2 = CDK2/Cyclin A2 (Homo sapiens, UniProt P24941); experiment: Inhibition of CDK2/cyclin A2 (unknown origin) in presence of [32P]gammaATP by image analyser; type: protein-complex assay
K562 = experiment: cells; settings: Homo sapiens, K562, 72 h
Description: Antiproliferative activity against human K562 cells assessed as cell death measured after 72 hrs by resazurin dye based assay

[16] = molecular target: T1, Receptor-type tyrosine-protein kinase FLT3 (Homo sapiens, UniProt P36888, ITD)
BaF3 [17] = experiment: Antiproliferative activity against mouse BaF3 cells assessed as cell death measured after 72 hrs by resazurin dye based assay; type: functional; settings: BaF3, 72 h
MV4-11 [18] = experiment: Antitumor activity against human MV4-11 cells xenografted in NRG mouse assessed as tumor growth inhibition treated at 50 mg/kg, po via gavage daily for 5 days in a week after 15 days of implantation measured after 21 days by luciferase based relative to control; type: functional; settings: MV4-11, po, 504 h, time 21 day
[19] = molecular target: Cyclin-dependent kinase 1/cyclin B1 (Homo sapiens, UniProt P06493); experiment: Inhibition of CDK1/cyclin B1 (unknown origin) in presence of [32P]gammaATP by image analyser; type: protein-complex assay
CDK2/Cyclin A1 = CDK2/Cyclin A1 (Homo sapiens, UniProt P24941); type: protein-complex assay
Description: Inhibition of CDK2/Cyclin A1 (unknown origin) at 1 uM using histone H1 as substrate preincubated for 20 mins followed by 33P-ATP addition and measured after 2 hrs by filter binding method

MV4-11 [20] = experiment: Induction of apoptosis in human MV4-11 cells assessed as increase in cleaved PARP1 level at 100 nM incubated for 24 hrs by Western blot analysis; type: functional, cell-based
U-937 = experiment: Antiproliferative activity against human U-937 cells assessed as cell death measured after 72 hrs by resazurin dye based assay; type: functional; settings: U-937, 72 h
[21] = molecular target: Dual specificity protein kinase CLK1 (Homo sapiens) (UniProt P49759); experiment: Inhibition of CLK1 (unknown origin) assessed as residual activity at 500 nM
[22] = molecular target: Maternal embryonic leucine zipper kinase (Homo sapiens) (UniProt Q14680); experiment: Inhibition of MELK (unknown origin) assessed as residual activity at 500 nM
[23] = molecular target: Receptor-type tyrosine-protein kinase FLT3 (Homo sapiens) (UniProt P36888); experiment: Inhibition of FLT3 autophosphorylation in human MV4-11 cells at 20 to 100 nM incubated for 1 hrs by Western blot analysis; type: cell-based; settings: dose 20-100 nM
CDK9/cyclin T1 = CDK9/cyclin T1 (Homo sapiens, UniProt P50750); experiment: Inhibition of CDK9/cyclin T1 (unknown origin) in presence of [32P]gammaATP by image analyser; type: protein-complex assay
MOLM-13 = experiment: Antiproliferative activity against human MOLM-13 cells assessed as cell death measured after 72 hrs by resazurin dye based assay; type: functional; settings: MOLM-13, 72 h
[24] = molecular target: Receptor-type tyrosine-protein kinase FLT3 (Homo sapiens) (UniProt P36888); experiment: Inhibition of FLT3 in human MV4-11 cells assessed as ERK1/2 phosphorylation at 20 to 100 nM incubated for 1 hrs by Western blot analysis; type: cell-based; settings: dose 20-100 nM
[25] = molecular target: Receptor-type tyrosine-protein kinase FLT3 (Homo sapiens, UniProt P36888, D835V); experiment: Binding affinity to human partial length FLT3 ITD D835V mutant expressed in mammalian expression system by KdELECT Discover assay
SEM cells = experiment: Antiproliferative activity against human SEM cells assessed as cell death measured after 72 hrs by resazurin dye based assay; type: functional
MV4-11 [26] = experiment: Induction of apoptosis in human MV4-11 cells assessed as effect on Bcl2 level at 100 nM incubated for 24 hrs by Western blot analysis; type: functional, cell-based
[27] = molecular target: T1, Receptor-type tyrosine-protein kinase FLT3; experiment: Binding affinity to human partial length FLT3 ITD mutant expressed in bacterial expression system by KdELECT Discover assay
[28] = molecular target: Cyclin-dependent kinase 2/cyclin E1 (Homo sapiens, UniProt P24941); experiment: Inhibition of CDK2/cyclin E1 (unknown origin) in presence of [32P]gammaATP by image analyser; type: protein-complex assay
MV4-11 [29] = experiment: Induction of apoptosis in human MV4-11 cells assessed as caspase 7 activation using fluorescent substrate Ac-DEVD-AMC at 100 nM incubated for 24 hrs by Western blot analysis; type: functional, cell-based

Cyclin-dependent kinase 4/cyclin D1, sequence (P11802 whole entry): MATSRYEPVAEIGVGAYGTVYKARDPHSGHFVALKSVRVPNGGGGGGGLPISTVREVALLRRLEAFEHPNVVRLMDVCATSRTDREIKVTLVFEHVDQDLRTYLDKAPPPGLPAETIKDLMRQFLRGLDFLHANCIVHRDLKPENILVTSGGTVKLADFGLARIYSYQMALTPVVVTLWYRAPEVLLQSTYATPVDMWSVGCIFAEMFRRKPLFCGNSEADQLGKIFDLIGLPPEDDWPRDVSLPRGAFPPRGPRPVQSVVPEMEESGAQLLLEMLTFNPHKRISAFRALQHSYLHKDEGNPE
Cyclin-dependent kinase 4/cyclin D1, sequence (P24385 whole entry, further chain): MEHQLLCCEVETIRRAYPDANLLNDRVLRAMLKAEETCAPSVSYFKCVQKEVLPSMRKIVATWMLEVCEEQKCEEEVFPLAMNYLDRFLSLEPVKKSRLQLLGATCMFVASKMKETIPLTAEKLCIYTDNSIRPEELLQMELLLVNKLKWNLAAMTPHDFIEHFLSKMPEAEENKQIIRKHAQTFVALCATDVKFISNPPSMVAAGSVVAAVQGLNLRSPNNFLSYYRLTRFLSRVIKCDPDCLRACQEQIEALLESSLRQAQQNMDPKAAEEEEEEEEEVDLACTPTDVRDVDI
Leucine-rich repeat serine/threonine-protein kinase 2 (Homo sapiens), sequence (Q5S007 whole entry): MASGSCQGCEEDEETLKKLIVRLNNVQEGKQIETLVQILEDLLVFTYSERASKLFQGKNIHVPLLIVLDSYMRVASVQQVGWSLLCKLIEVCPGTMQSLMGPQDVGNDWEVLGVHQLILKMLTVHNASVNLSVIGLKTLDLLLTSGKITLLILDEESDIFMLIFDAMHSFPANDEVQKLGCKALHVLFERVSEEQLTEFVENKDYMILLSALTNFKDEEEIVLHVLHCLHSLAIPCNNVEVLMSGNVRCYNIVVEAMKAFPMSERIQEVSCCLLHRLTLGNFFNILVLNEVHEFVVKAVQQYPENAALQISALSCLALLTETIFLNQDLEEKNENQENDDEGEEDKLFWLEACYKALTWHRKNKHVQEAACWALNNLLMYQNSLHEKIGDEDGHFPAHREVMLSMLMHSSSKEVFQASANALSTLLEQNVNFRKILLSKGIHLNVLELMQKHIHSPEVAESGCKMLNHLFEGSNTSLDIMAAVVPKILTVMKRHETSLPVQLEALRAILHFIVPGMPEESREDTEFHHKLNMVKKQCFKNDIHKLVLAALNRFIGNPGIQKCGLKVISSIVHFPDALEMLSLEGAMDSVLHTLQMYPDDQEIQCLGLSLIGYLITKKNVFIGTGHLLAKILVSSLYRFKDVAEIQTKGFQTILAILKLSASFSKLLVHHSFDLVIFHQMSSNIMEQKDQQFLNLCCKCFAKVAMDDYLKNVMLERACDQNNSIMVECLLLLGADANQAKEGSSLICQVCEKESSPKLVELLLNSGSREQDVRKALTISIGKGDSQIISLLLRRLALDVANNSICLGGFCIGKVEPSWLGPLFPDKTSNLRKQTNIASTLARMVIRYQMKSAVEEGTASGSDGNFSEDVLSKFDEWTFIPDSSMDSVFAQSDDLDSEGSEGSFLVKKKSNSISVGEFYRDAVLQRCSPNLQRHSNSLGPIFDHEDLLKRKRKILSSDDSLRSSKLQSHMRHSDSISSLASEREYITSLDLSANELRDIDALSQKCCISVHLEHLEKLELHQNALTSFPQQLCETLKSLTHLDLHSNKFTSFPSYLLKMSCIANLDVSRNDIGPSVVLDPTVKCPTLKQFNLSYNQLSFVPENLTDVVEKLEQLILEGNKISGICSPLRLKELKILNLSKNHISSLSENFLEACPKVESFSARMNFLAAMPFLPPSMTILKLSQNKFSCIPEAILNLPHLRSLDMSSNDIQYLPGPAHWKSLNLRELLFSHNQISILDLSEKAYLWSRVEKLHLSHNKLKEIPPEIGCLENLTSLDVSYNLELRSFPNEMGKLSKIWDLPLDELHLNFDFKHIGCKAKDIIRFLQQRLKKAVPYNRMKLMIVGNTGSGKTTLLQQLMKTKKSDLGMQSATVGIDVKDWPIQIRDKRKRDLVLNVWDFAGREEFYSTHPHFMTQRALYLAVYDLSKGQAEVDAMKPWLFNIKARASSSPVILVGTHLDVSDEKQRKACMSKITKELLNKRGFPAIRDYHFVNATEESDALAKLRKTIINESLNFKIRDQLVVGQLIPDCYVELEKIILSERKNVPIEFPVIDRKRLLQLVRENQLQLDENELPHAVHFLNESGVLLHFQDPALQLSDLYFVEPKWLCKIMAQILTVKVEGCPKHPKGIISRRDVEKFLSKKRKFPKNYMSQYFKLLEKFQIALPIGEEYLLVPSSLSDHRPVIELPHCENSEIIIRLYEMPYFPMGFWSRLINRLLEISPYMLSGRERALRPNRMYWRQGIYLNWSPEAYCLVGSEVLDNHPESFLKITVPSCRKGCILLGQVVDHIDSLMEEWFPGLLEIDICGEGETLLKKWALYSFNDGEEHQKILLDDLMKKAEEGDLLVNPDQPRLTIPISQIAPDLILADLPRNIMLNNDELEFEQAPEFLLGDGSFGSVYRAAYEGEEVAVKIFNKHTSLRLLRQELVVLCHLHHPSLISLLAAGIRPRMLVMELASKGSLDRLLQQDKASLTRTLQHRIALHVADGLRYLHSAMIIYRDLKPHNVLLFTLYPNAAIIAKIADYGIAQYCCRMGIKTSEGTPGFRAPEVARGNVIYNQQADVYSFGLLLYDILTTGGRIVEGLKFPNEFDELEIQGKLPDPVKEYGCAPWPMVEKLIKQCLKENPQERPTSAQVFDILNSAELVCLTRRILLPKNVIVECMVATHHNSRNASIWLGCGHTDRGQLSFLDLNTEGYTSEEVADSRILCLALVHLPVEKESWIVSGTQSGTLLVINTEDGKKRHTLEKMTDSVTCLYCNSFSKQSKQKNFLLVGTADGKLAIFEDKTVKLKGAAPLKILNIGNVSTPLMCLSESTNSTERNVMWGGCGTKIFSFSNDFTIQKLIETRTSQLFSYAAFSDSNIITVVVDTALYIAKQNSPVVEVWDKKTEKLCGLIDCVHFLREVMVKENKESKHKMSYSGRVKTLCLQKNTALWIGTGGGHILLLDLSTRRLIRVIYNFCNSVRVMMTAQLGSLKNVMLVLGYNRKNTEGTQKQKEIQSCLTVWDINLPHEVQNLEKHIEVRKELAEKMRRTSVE
Dual specificity protein kinase CLK1 (Homo sapiens), sequence (P49759 whole entry, looked up): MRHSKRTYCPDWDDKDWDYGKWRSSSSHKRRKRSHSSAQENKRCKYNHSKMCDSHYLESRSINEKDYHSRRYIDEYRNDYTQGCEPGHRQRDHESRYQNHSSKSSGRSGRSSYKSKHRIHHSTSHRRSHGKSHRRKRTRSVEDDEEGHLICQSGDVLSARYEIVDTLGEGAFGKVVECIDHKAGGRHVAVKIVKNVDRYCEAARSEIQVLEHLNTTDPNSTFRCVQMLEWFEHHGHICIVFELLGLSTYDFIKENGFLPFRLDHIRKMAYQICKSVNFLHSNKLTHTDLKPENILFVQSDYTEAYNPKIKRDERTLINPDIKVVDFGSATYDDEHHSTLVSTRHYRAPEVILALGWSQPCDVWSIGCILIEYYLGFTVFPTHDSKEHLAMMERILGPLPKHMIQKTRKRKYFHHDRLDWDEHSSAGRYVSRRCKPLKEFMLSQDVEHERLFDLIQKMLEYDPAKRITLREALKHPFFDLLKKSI
CDK9/cyclin T1, sequence (O60563 whole entry): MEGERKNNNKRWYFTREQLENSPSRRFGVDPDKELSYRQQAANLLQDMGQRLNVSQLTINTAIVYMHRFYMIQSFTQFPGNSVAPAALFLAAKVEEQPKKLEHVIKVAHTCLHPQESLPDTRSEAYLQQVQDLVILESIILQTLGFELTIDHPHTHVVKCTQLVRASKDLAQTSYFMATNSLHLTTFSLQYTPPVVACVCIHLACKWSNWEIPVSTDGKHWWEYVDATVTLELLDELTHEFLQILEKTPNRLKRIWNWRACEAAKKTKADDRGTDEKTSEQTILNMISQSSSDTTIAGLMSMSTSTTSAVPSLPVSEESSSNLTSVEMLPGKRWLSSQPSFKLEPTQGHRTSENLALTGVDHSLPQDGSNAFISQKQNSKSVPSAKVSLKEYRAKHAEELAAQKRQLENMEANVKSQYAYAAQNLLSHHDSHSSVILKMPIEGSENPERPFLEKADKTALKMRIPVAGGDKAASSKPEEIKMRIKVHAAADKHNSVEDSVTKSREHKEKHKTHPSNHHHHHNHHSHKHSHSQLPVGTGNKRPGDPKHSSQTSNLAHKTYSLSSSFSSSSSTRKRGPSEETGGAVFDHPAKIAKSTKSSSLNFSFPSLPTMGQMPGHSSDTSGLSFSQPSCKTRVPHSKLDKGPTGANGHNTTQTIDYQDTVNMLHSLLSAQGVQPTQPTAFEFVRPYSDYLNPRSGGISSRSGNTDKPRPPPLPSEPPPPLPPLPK
CDK9/cyclin T1, sequence (P50750 whole entry): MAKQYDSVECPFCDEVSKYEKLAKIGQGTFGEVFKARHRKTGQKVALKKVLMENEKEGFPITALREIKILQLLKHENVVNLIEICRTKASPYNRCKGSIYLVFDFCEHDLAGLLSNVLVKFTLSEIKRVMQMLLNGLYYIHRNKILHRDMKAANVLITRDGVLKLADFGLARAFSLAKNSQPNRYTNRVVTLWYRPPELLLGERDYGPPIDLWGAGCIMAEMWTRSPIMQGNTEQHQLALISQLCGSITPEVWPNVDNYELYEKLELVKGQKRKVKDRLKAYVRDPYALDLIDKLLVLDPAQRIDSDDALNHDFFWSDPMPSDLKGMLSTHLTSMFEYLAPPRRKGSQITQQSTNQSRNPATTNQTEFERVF

Q: Which results are given for Cc1n[nH]c2ccc3nc(-c4c[nH]nc4C(F)(F)F)c4c(c3c12)CCCC4?
A: Activity [1]: < 2.5%; Activity [2]: 4%; IC50 (MV4-11 [3]): 70 nM; IC50 [4]: > 1000 nM; Kd [5]: 1.3 nM; IC50 (MOLM-14 [6]): 53 nM; IC50 (MOLM-14 [7]): 36 nM; Activity (MV4-11 [8]): Active; inhibition [9]: Active; Activity [10]: 4%; IC50 (CCRF-CEM): 6510 nM; IC50 (BaF3 [11]): 62 nM; IC50 (THP-1): 6800 nM; Activity [12]: 4%; Activity [13]: < 2.5%; IC50 (MOLM-14 [14]): 26 nM; Activity (MV4-11 [15]): Active; IC50 (CDK2/Cyclin A2): 430 nM; IC50 (K562): 9820 nM; IC50 [16]: 6 nM; IC50 (BaF3 [17]): 153000 nM; inhibition in vivo at 50 mg/kg (MV4-11 [18]): 90%; IC50 [19]: 157 nM; IC50 (CDK2/Cyclin A1): 430 nM; Activity (MV4-11 [20]): Active; IC50 (U-937): 2880 nM; Activity [21]: 4%; Activity [22]: 4%; inhibition [23]: Active; IC50 (CDK9/cyclin T1): > 1000 nM; IC50 (MOLM-13): 68 nM; inhibition [24]: inactive; Kd [25]: 0.73 nM; IC50 (SEM cells): 422 nM; Activity (MV4-11 [26]): Active; Kd [27]: 1.6 nM; IC50 [28]: 258 nM; Activity (MV4-11 [29]): Active
